{"source": "patent US20240360415A1", "about": "“MUSCLE CELLS DIFFERENTIATED FROM PLURIPOTENT CELLS, METHODS OF PRODUCING SAME AND USE THEREOF” (ALEPH FARMS LTD., priority 2021, published 2024)", "test_system": "Bovine pluripotent stem cells (PSCs)", "assay": "Immunofluorescence staining of Myosin heavy chain (MF-20 antibody) after total of 11 days of differentiation", "type": "cell-based", "conditions": "3D suspension 4 days with factors (CHIR 10 μM; Activin A 20 ng/ml or TGFβ 2 ng/ml), then 7 days 2D serum-free without factors; FIG. 3A-3C", "procedure": "Bovine skeletal muscle cells in 2D culture were subjected to immunofluorescence analysis as following: The cells were fixed using 4% Paraformaldehyde (PFA; […] Nuclei were stained using […] of DAPI (Sigma). The imaging was performed using EVOS FL Auto 2 Fluorescent Microscopy (ThermoFisher). Bovine pluripotent stem cells (PSCs) were grown in 2D and/or 3D culture. […] The suspension culture conditions (“3D culture conditions”) include ultra-low adherent (ULA) 6-well plate (Corning) placed at 38.5° C. under 5% CO2 and humidity of >75% under rotation. Medium was refreshed using the skeletal Muscle Precursor medium (without RI) and the formed aggregates were allowed to differentiate for a total of 4 days. The aggregates comprising skeletal muscle committed cells were collected and seeded on in a tissue culture Vitronectin (0.005 mg/ml) pre-coated plate (“2D conditions”) in serum free growth medium. […] Medium was refreshed using the skeletal Muscle Precursor medium (without RI) and the formed aggregates were allowed to differentiate for a total of 4 days. After 4 days, the cells comprising skeletal muscle committed cells were collected and seeded in a 2D culture conditions as described for the aggregate obtained from 3D culture conditions described above."}
{"smiles": "Cc1cnc(-c2cnc(NCCNc3ccc(C#N)cn3)nc2-c2ccc(Cl)cc2Cl)[nH]1", "note": "[CHIR-99021, 6-[[2-[[4-(2,4-Dichlorophenyl)-5-(5-methyl-1H-imidazol-2-yl)-2-pyrimidinyl]amino]ethyl]amino]-3-pyridinecarbonitrile]", "values": [{"measurement": "Myosin heavy chain positive (skeletal muscle) cells by immunofluorescence", "value": "no Myosin positive cells"}]}
